From publication PMC6591177, “Small Molecule IL-36γ Antagonist as a Novel Therapeutic Approach for Plaque Psoriasis” (Scientific Reports, 2019)
Blank lines part the entries; values can stand above or below the molecule they belong to.

Experiments:
[1] = system: IL-1β evoked IL-8 release from HaCaT cells; test: IL-1β evoked IL-8 release assay in HaCaT cells; assay type: cell-based, human
Method: (§1) The immortalized human keratinocyte cell line HaCaT and mouse fibroblast NIH-3T3 cell line were maintained in culture in DMEM with 10% fetal bovine serum and 1% penicillin/streptomycin added (Sigma). Cells were seeded in 96-well tissue culture plates (Corning) at 25,000 cells per well and allowed to adhere and recover overnight at 37 °C in an incubator. Cells were rinsed with PBS (Sigma) and treated with cytokines diluted in 200 μL/well of the medium (DMEM with 0.5% FBS and 1% penicillin/streptomycin) as indicated. In inhibition mode, the agonist concentration used was at the EC80 for chemokine production and the cells were pre-treated with inhibitors for 30 min prior to adding the agonist. After 24 h of treatment, supernatants were collected and IL-8 and CXCL1[28] levels were assessed using a custom immunoassay (Meso Scale Discovery). EC50/IC50 values were estimated from a four-parameter logistic fit using Prism software (GraphPad).
(§2) The IL-8 release assays were miniaturized for HTS hit follow-up. Frozen aliquots of HaCaT cells were thawed, added to complete media, mixed, spun down, resuspended in fresh media, and dispensed using the Multidrop384 into black, clear-bottom 384 well plates at a final density of 4000 cells/well. […] Cell viability was assessed using Cell Titer-Glo (Promega) according to the manufacturers’ instructions.

HaCaT cells [2] = test: Cell viability (Cell Titer-Glo) counter screen; assay type: cell-based, human
Method: The IL-8 release assays were miniaturized for HTS hit follow-up. Frozen aliquots of HaCaT cells were thawed, added to complete media, mixed, spun down, resuspended in fresh media, and dispensed using the Multidrop384 into black, clear-bottom 384 well plates at a final density of 4000 cells/well. After a 24 h recovery period at 37 °C/5% CO2, the cell plates were rinsed twice with 40 μL/well fresh media. The Biomek FX workstation was then used to add 10 μL/well compounds. Cell plates were then returned to 37 °C for 15 min incubation, followed by the addition of 10 μl/well of IL-36γ (40 ng/ml final). After an additional 5 h of incubation at 37 °C, 5 μl/well of cell supernatant was removed with the Biomek FX and transferred to a 384 well Proxy Plate for IL-8 detection using the HTRF kit from Cisbio. For the IL-1β evoked release of IL-8, the same protocol was followed, but with a final concentration of 1 ng/mL IL-1β and an overnight incubation instead of 5 h. Cell viability was assessed using Cell Titer-Glo (Promega) according to the manufacturers’ instructions.

[3] = system: human IL-36γ evoked CXCL1 release from Human HaCaT cells; test: human IL-36γ evoked CXCL1 release, human HaCaT cells; assay type: cell-based; conditions: ± S.D.
Method: as §1

[4] = system: IL-36γ evoked CXCL1 release from Mouse NIH-3T3 cells; test: IL-36γ evoked CXCL1 release, mouse NIH-3T3 cells; assay type: cell-based; conditions: human IL-36γ evoked CXCL1 release, ± S.D.
Method: as §1

human IL-36γ = target: T1, human IL-36γ (Homo sapiens, UniProt Q9NZH8); test: Thermal shift assay, human IL-36γ; assay type: binding; conditions: 100 μM compound; read-out: increase of melting temperature of human IL-36γ
T1 construct: His6-SUMO-human IL-36γ (18–169); His6-SUMO (N, cleaved yes); made in house; host or cells: E. coli BL21 (DE3)
T1 sequence (Q9NZH8 18-169): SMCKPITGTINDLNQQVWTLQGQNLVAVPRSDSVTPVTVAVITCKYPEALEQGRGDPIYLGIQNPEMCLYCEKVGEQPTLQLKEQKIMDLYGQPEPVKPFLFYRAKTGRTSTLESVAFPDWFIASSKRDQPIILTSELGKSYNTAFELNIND
Method: (§3) Thermal shift assays[30] were performed on a Roche LightCycler 480 instrument using Sypro Orange Dye (Invitrogen). Reactions consisted of 0.5–2 µM purified recombinant protein in PBS, pH 7.4, a 1/500 dilution of the stock Sypro Orange reagent, and 100 µM test compounds, resulting in a final DMSO concentration of 1%. The samples were heated from 20 °C to 95 °C at a rate of 0.25 °C per second.

human IL-36α = target: T2, human IL-36α (Homo sapiens, UniProt Q9UHA7); test: Thermal shift assay / affinity, human IL-36α; assay type: binding; conditions: thermal shift assay at 100 μM (Supplementary Fig. 4)
T2 construct: using recombinant truncated proteins
T2 sequence (Q9UHA7 6-158): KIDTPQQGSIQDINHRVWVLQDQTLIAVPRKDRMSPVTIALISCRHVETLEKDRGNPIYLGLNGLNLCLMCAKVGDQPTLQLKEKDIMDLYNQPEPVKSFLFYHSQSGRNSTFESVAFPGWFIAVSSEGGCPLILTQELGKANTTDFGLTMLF
Method: as §3

IL-36 receptor = target: T3, IL-36 receptor (Homo sapiens, UniProt Q9HB29); test: IL-8 release assay in HaCaT cells
T3 chain: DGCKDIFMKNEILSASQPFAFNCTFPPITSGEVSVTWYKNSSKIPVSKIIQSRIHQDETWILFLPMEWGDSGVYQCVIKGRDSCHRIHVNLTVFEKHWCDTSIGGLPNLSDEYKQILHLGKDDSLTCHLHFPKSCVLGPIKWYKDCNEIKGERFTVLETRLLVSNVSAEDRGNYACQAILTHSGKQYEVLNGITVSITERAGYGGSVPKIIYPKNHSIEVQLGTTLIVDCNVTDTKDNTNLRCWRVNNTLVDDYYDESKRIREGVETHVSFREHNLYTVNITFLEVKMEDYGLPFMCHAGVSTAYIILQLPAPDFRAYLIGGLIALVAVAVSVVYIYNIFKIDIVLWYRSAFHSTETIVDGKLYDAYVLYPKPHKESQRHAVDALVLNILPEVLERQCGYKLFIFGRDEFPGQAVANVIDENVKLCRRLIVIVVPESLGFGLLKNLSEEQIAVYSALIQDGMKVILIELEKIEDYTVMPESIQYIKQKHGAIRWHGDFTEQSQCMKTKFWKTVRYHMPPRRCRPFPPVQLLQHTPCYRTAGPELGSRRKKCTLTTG

[5] = target: T4, human IL-36R/IL-1RAcP extracellular domain (ECD) knob-in-hole Fc (human, UniProt Q9HB29 20-335; Q9NPH3 21-367); test: AlphaScreen or HTRF; TR-FRET, competitive mode: unlabeled human IL-36γ or IL-36Ra titrated against 6 nM Alexa 488 human IL-36γ, receptor heterodimer 1.5 μg/mL, 6 nM Tb-anti-His antibody; Ki by the Cheng-Prusoff equation; conditions: both partners purified
T4 construct: human IL-36 receptor subunit (IL-36R), extracellular domain; human IL-1RAcP co-receptor subunit, extracellular domain; Both proteins were engineered with an Fc 'knob-in-hole' to force heterodimerisation; also called hIL-36R/IL-1RAcP ECD knob-in-hole Fc; human IL-36R/IL-1RAcP ECD Fc heterodimer; not shown: His tag (from the nickel column and the Tb-anti-His detection)
T4 sequence (looked up) 1: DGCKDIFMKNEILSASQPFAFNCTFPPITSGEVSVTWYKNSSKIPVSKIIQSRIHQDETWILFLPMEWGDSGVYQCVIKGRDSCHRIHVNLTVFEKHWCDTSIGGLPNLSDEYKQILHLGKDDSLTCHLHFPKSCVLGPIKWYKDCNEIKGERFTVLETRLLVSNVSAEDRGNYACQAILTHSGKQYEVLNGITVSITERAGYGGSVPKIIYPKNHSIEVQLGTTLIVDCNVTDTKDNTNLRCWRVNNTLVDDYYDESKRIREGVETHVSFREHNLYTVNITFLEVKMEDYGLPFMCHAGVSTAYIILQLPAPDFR
T4 sequence (looked up) 2: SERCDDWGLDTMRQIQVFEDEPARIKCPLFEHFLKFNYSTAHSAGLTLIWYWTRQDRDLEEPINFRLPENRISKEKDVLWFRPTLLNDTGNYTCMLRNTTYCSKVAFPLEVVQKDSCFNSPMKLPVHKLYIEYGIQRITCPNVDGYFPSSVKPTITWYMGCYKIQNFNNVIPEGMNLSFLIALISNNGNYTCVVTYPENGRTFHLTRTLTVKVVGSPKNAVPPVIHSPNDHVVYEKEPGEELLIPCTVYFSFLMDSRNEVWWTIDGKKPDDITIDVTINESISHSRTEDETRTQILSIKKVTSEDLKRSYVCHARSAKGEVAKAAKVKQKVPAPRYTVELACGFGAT

HaCaT cells [6] = test: mouse IL-36γ induction of CXCL1 release from HaCaT cells; assay type: cell-based, human; conditions: agonist mode
Method: as §1

[7] = target: T4, human IL-36R/IL-1RAcP extracellular …; test: AlphaScreen or HTRF; TR-FRET, direct binding: receptor heterodimer 1.5 μg/mL with 6 nM Tb-anti-His antibody, Alexa 488 IL-36γ titrated; 1% BSA in 1X PBS; overnight at 4 °C, read at room temperature; ratio 520 nm/495 nm; conditions: both partners purified
[8] = system: IL-36γ evoked IL-8 release from HaCaT cells; test: IL-36γ evoked IL-8 release assay from HaCaT cells; assay type: cell-based, human; conditions: agonist mode, n = 4
Method: as §1, §2

ΔTm at 100 µM (human IL-36γ): 5.4 °C
binding / affinity to human IL-36α (human IL-36α): do not bind
Molecule: COC(c1ccccc1)(c1ccccc1)C(Oc1nc(C)cc(-c2ccc(C)c(N)c2)n1)C(=O)O (centres unmarked) [Compound A-706]
activity in the hIL-1β induced IL-8 release assay [1]: no activity
cellular toxicity (HaCaT cells [2]): no activity in the hIL-1β induced IL-8 release assay or cellular toxicity
Ki [3]: 121 ± 32 nM
Ki [4]: 181 ± 54 nM

Ki (IL-36 receptor): 0.6 nM
Ki [5]: 2 nM
B1: human IL-36Ra (2–155) (ligand, UniProt Q9UBH0 2-155, looked up)
chain: VLSGALCFRMKDSALKVLYLHNNQLLAGGLHAGKVIKGEEISVVPNRWLDASLSPVILGVQGGSQCLSCGVGQEPTLTLEPVNIMELYLGAKESKSFTFYRRDMGLTSSFESAAYPGWFLCTVPEADQPVRLTQLPENGGWNAPITDFYFQQCD
notes: human IL-36 receptor antagonist (IL-36Ra), residues 2-155; also called hIL-36Ra; recombinant soluble hIL-36Ra; source: E. coli BL21 (DE3), purified (nickel column, ULP1 cleavage, Superdex 75 gel filtration); not shown: His6, N-terminal, cleaved; SUMO, N-terminal, cleaved

B2: mouse IL-36γ: mouse IL-36γ cytokine (protein, UniProt Q8R460 13-164, looked up)
Interleukin-36 gamma: GRETPDFGEVFDLDQQVWIFRNQALVTVPRSHRVTPVSVTILPCKYPESLEQDKGIAIYLGIQNPDKCLFCKEVNGHPTLLLKEEKILDLYHHPEPMKPFLFYHTRTGGTSTFESVAFPGHYIASSKTGNPIFLTSKKGEYYNINFNLDIKS
induction of CXCL1 release from HaCaT cells (HaCaT cells [6]): cannot induce CXCL1 release

EC50 [7]: 0.3 nM
B3: N-terminal labeled Alexa 488 human IL-36γ (ligand, UniProt Q9NZH8 18-169, looked up)
chain: T1 sequence (Q9NZH8 18-169)
modifications: Alexa Fluor 488 (N-hydroxysuccinimidyl ester); called N-terminal labeled
notes: human IL-36γ, residues 18-169; Same protein as m3, with the dye; also called Alexa-488 labeled hIL-36γ; NHS-AlexaFluor-488 conjugated human IL-36γ; not shown: His6, N-terminal, cleaved; SUMO, N-terminal, cleaved

B4: human IL-36γ: recombinant human IL-36γ (18–169) cytokine, IL-36R agonist (protein)
chain: T1 sequence (Q9NZH8 18-169)
modifications: left off: His6, N-terminal, cleaved | SUMO, N-terminal, cleaved
notes: recombinant human IL-36γ (18–169) cytokine, IL-36R agonist
EC50 [8]: 0.2 ± 0.1 nM
